Here are results for 19 compounds from patent US20240228500A1, “THERAPEUTIC CONJUGATES” (TOTUS MEDICINES INC., priority 2021, published 2024).

SMILES strings stand for the structures.

The subject of this assay is NanoLuc fused to the biological target. Briefly: NanoBRET binding assay of ARCS in transfected HEK293 cells with washout. To be noted: HEK293 cells transiently transfected with NanoLuc fusion DNA, compound incubated overnight, cells washed 5x in PBS, tracer added. Also on record: species or system human. On the procedure:
Human embryonic kidney 293-H (HEK 293, Gibco 293-H, #11631017) cell lines were maintained in Dulbecco's Modified Eagle Medium, high glucose, pyruvate (DMEM, Gibco, #11995065) supplemented with 10% fetal bovine serum (FBS, Gibco, #10082147) and 1× penicillin-streptomycin (100× solution, Gibco, #15140148) at 37° C. and 5% CO2 in a water-saturated incubator. Cells were trypsinized using 0.05% or 0.25% Trypsin-EDTA solution (Trypsin-EDTA, phenol red, Gibco, #25200056 (0.25%) or #25300054). Opti-MEM media supplemented with 10% fetal bovine serum (Opti-MEM I reduced serum media, no phenol red, Gibco, #11058021) was used for culturing cells overnight for NanoBRET readout experiments.
HEK293 cells were then cultivated appropriately prior to assay. The medium from cell flask was removed via aspiration, washed 1× with PBS followed by aspiration, trypsinized, and cells were allowed to dissociate from the flask. Trypsin is neutralized using growth medium and cells were pelleted via centrifugation at 200×g for 5 minutes. The medium was aspirated and the cells were resuspended into a single cell suspension using Opti-MEM I supplemented with 10% FBS. The cell density was adjusted to 2×10^5/mL in Opti-MEM I supplemented with 10% FBS in a sterile, conical tube. The cells were transfected and aliquoted directly in a 96-well plate for the NanoBRET assay the next day, and therefore, the cells were cultured overnight in Opti-MEM. The cells were also transfected in bulk and dispensed into a 96-well plate to allow cells to adhere to the plate overnight, thereby enabling washout studies.
The lipid:DNA complexes were then prepared as follows: A 10 μg/mL solution of DNA was prepared in Opti-MEM without serum. This solution contains the following ratios of carrier DNA and DNA encoding NanoLuc fused to the biological target. Serial dilution steps may be warranted to accurately dilute the NanoLuc fusion DNA. Added, in order, were the following reagents to a sterile polystyrene test tube: 1 mL of Opti-MEM without phenol red; 9.0 μg/mL of carrier DNA; 1.0 μg/mL of NanoLuc fusion DNA (for some targets, the amount is less). The reagents were mixed thoroughly.
[…] was added into each mL of DNA mixture to form lipid:DNA complex. […] It was mixed by pipetting up and down 5-10 times and incubated at room temperature for 20 minutes to allow complexes to form. 1 part (e.g. 1 mL) of lipid:DNA complex was mixed with 20 parts (e.g. 20 mL) of HEK293 cells in suspension at 2×10^5/mL and mixed gently by pipetting up and down 5 times in a sterile, conical tube. Larger or smaller bulk transfections were scaled accordingly, using this ratio. 100 μL cells+lipid:DNA complex was dispensed into a sterile, tissue-culture treated 96-well plate (20,000 cells/well), and incubated at least 16 hours to allow expression. The cells were incubated in a 37° C.+5% CO2 incubator for >16 hrs. A serially diluted inhibitor (i.e. ARCS) or test compound was prepared at 100× final concentration in 100% DMSO. The serially diluted inhibitor stock was prepared in PCR plates. 1 μL per well of 100× serially diluted inhibitor/test compound was added to the cells in 96-well plates that have been transiently transfected overnight and mixed by tapping the plate by hand. The plate was incubated at 37° C.+5% CO2 incubator overnight. A 1× solution of substrate mix (500× stock) and appropriate concentration of tracer was prepared in Opti-Mem. The cells were washed by setting a plate washer to the 96 well plate 5× in PBS pH 7.4 by adding 200 μL PBS each time. The cells were then incubated at 37° C. for 2 hours. 100 μL of the 1× Substrate-Tracer solution was added and the 96 well plate was gently tapped to mix. The plate on plate reader is read every hour for the next 6 hours.
Regarding `COC(=O)Nc1cc(C(F)(F)F)c(-c2nc(N3CCOCC3)c3cc(CN4CCN(C(=O)CNC(=O)/C=C/CN5CC6(COC6)C5)CC4)cn3n2)cn1` [Compound 1-213], the “Binding (Percent inhibition)” value is “+ (+ <20%)”.
Take `COC(=O)Nc1cc(C(F)(F)F)c(-c2nc(N3CCOCC3)c3cc(CN4CCN(C(=O)CNC(=O)/C=C/CN5CCCCC5)CC4)cn3n2)cn1` [Compound 1-217]: the “Binding (Percent inhibition)” value is given as “++ (++ 20-50%)”.
The same measure for `C=C(OC)C(=O)NCC(=O)N1CCN(Cc2cc3c(N4CCOCC4)nc(-c4cnc(NC(=O)OC)cc4C(F)(F)F)nn3c2)CC1` [Compound 1-314]: “++++ (++++ >80%)”; for `C=CC(=O)NCC(=O)N1CC2(CN(Cc3cc4c(N5CCOCC5)nc(-c5cnc(NC(=O)OC)cc5C(F)(F)F)nn4c3)C2)C1` [Compound 1-223]: “++ (++ 20-50%)”.
With `COC(=O)Nc1cc(C(F)(F)F)c(-c2nc(N3CCOCC3)c3cc(CN4CCN(C(=O)CNC(C)=O)CC4)cn3n2)cn1` [Compound 1-214], the “Binding (Percent inhibition)” value is listed as “++++ (++++ >80%)”.
In the case of `C=C(C)C(=O)NCC(=O)N1CCN(Cc2cc3c(N4CCOCC4)nc(-c4cnc(NC(=O)OC)cc4C(F)(F)F)nn3c2)CC1` [Compound 1-201] it was “++++ (++++ >80%)”; in that of `COC(=O)Nc1cc(C(F)(F)F)c(-c2nc(N3CCOCC3)c3cc(CN4CCN(C(=O)CNC(=O)/C=C/CN5CCOCC5)CC4)cn3n2)cn1` [Compound 1-202], “++++ (++++ >80%)”; in that of `C=CC(=O)N1CCC[C@H]1C(=O)N1CCN(Cc2cc3c(N4CCOCC4)nc(-c4cnc(NC(=O)OC)cc4C(F)(F)F)nn3c2)CC1` [Compound 1-309], “++++ (++++ >80%)”.
The same measure for `C=CC(=O)N(C)c1cccc(C(=O)N2CCN(Cc3cc4c(N5CCOCC5)nc(-c5cnc(NC(=O)OC)cc5C(F)(F)F)nn4c3)CC2)c1` [Compound 1-312]: “++ (++ 20-50%)”; for `COC(=O)Nc1cc(C(F)(F)F)c(-c2nc(N3CCOCC3)c3cc(CN4CCN(C(=O)CNC(=O)/C=C/CN5CC(F)(F)C5)CC4)cn3n2)cn1` [Compound 1-204]: “++++ (++++ >80%)”.
The same measure for `COC(=O)Nc1cc(C(F)(F)F)c(-c2nc(N3CCOCC3)c3cc(CN4CCN(C(=O)CNC(=O)/C=C/CN5CCN(C)CC5)CC4)cn3n2)cn1` [Compound 1-203]: “++ (++ 20-50%)”; for `C=CC(=O)N[C@@H](C)C(=O)N1CCN(Cc2cc3c(N4CCOCC4)nc(-c4cnc(NC(=O)OC)cc4C(F)(F)F)nn3c2)CC1` [Compound 1-315]: “++++ (++++ >80%)”.
In the case of `C=C(F)C(=O)NCC(=O)N1CCN(Cc2cc3c(N4CCOCC4)nc(-c4cnc(NC(=O)OC)cc4C(F)(F)F)nn3c2)CC1` [Compound 1-212], the “Binding (Percent inhibition)” value was “++++ (++++ >80%)”.
In the case of `C=CC(=O)N1CCC(C(=O)N2CCN(Cc3cc4c(N5CCOCC5)nc(-c5cnc(NC(=O)OC)cc5C(F)(F)F)nn4c3)CC2)CC1` [Compound 1-304] it was “++++ (++++ >80%)”; in that of `C=CC(=O)Nc1cccc(C(=O)N2CCN(Cc3cc4c(N5CCOCC5)nc(-c5cnc(NC(=O)OC)cc5C(F)(F)F)nn4c3)CC2)c1` [Compound 1-306], “++ (++ 20-50%)”; in that of `C=CC(=O)N[C@H](C)C(=O)N1CCN(Cc2cc3c(N4CCOCC4)nc(-c4cnc(NC(=O)OC)cc4C(F)(F)F)nn3c2)CC1` [Compound 1-313], “++++ (++++ >80%)”.
The same measure for `C#CCCC(=O)Nc1ccc(-c2nc(N3CCOCC3)c3cc(CN4CCN(C(=O)CNC(=O)C=C)CC4)cn3n2)cc1` [Compound 1-215]: “+ (+ <20%)”; for `COC(=O)Nc1cc(C(F)(F)F)c(-c2nc(N3CCOCC3)c3cc(CN4CCN(C(=O)CNC(=O)/C=C/CF)CC4)cn3n2)cn1` [Compound 1-206]: “+ (+ <20%)”.
On to `C=CC(=O)N1CCC[C@@H]1C(=O)N1CCN(Cc2cc3c(N4CCOCC4)nc(-c4cnc(NC(=O)OC)cc4C(F)(F)F)nn3c2)CC1` [Compound 1-308], for which the “Binding (Percent inhibition)” value is listed as “++++ (++++ >80%)”.
